Values joined by “and” are separate entries in the source; they are usually repeats but may differ in a detail not shown here. Identical values can stand only once. “Also recorded” adds a separate entry of the source. Like-named read-outs stand apart in the source and are kept apart here.
Tests used:
HIV-1 = experiment: Inhibition of HIV-1-induced cytopathic effect (CPE) in MT-4 cells; type: cell-based, HIV-1 (LAV-1) in human MT-4 cells; details: for IC100: Human immunodeficiency virus 1, MT4, 120 h; for IC100 / Anti-HIV-1 IC100 (complete prevention of HIV-1-induced CPE) / r = CC0/IC100 / CPE inhibitory effect (in words): MT-4 cells; for r = CC0/IC100: 7200 min; for CPE inhibitory effect (in words): HIV-1
Description: (§1) In the experiments, MT-4 cells were used. The cells were incubated at 37° C. under 5% CO2 in RPMI-1640 medium (FCS, Flow laboratories, North Ryde, Australia) supplemented with 100 μg/mL of streptomycin (Meiji Seika, Tokyo, Japan), and 100 U/mL of penicillin G (Banyu Pharmaceutical, Tokyo, Japan).
HIV-1 was obtained from culture supernatant of MOLT-4 cells that had been persistently infected with LAV-1.
j) Assay of cytopathic effect(CPE) of HIV-1 in MT-4 cells
(§2) The inhibitory effect of test compounds on HIV-1-induced cytopathogenicity was measured by the method of Harada, Koyanagi & Yamamoto (1985). MT-4 cells were infected for 1 hour with HIV-1 (at TCID50 of 0.001/well) and non-adsorbed virus was removed by washing. Then, the cells were resuspended in RPMI-1640 medium at a concentration of 1.5×10^5 cells/mL. A 200 μL/well of the cell suspension was cultured for 5 days in days in a 96-well culture plate containing various concentrations (12 doses, maximum 1,000 μg/mL and minimum […]) of the test compounds. Control assays were performed in the absence of test compounds with HIV-1-infected and uninfected cultures. On day 5, the IC100 of the test compound required for completely preventing HIV-1-induced CPE(IC) was determined through an optical microscope and the cell growth was examined to give the CC0 that reduces the viability of MT-4 cells.
A variety of phorbol esters and related compounds were tested for their ability to inhibit the replication and infectivity of HIV-1 in MT-4 cells, a human CD4-positive cell line continually infected with HTLV-1, and the results are presented in Table 3.

[1] = Cell growth / viability of MT-4 cells (cytotoxicity); type: cell-based; details: human, day 5, read-out: CC0 (concentration that reduces viability of MT-4 cells; minimum cytotoxic concentration)
Description: as §1, §2

protein kinase C (PKC) = type: biochemical, mouse; details: for % Activity of PKC: relative to TPA positive control; for activation of PKC (in words): concentration not given; for PKC activation, positive control: TPA, lipid and calcium chloride present
Description: After addition of 0.55 nM [γ-^32 P] ATP (50×10^3 cpm/nmol), the reaction mixture was mixed and allowed to be kept at 37° C. for 30 minutes. Then the reactions were terminated by the addition of 10 μl of ice-cold stop reagent. Aliquots of 35 μL were transferred to the center of peptide binding discs. After 10 minutes, the discs were washed two times with 75 mM orthophosphoric acid. The activity of ^32 P-labeled samples was counted in 10/mL of a scintillation fluid for 1 minute. […] Blank (in the absence of PKC) and control (in the absence of TPA or tested samples) were also carried out. One unit of PKC was defined as that amount of enzyme, which incorporated 1 nmol of phosphate from ATP into its substrate, peptide, per minute under the assay conditions, described above.

[2] = 5 days, NE: Not effective, read-out: Anti-HIV-1 IC100 (complete prevention of HIV-1-induced CPE)
[3] = read-out: IC100 (complete inhibition of CPE)
[4] = 10 ng/mL (standard concentration)

CCCCCCCCCC(=O)O[C@@H]1[C@@H](C)[C@@]2(O)[C@@H](C=C(CO)C[C@]3(O)C(=O)C(C)=C[C@@H]23)[C@@H]2C(C)(C)[C@]12OC(=O)C(C)CC (stereo partly drawn) [Compound 4, 12-O-Decanoylphorbol-13-(2-methylbutyrate)]
IC100 (HIV-1; [2]): 7.81 µg/mL | Anti-HIV-1 IC100 (complete prevention of HIV-1-induced CPE) (HIV-1; 5 days, NE: Not effective): 7.8 µg/mL | r = CC0/IC100 (HIV-1): 4.01 | MCC at 120 h [1]: 31.3 µg/mL | PKC activation (in words) (protein kinase C (PKC); 10 ng to 2.7 μg/mL): no activation | % Activity of PKC (protein kinase C (PKC); 10 ng/mL): 0% | % Activity of PKC (protein kinase C (PKC); 2.7 μg/mL): 0% | activation of PKC (in words) (protein kinase C (PKC)): did not show any activation of PKC

CCCCCCCCCCCCCC(=O)O[C@@H]1[C@@H](C)[C@@]2(O)[C@@H](C=C(CO)C[C@]3(O)C(=O)C(C)=C[C@@H]23)[C@@H]2C(C)(C)[C@]12OC(C)=O [Compound 8, reference compound]
IC100 (HIV-1; [2]): 0.00048 µg/mL | IC100 (HIV-1; [3]): 0.00048 µg/mL | CPE inhibitory effect (in words) (HIV-1): equipotent | r = CC0/IC100 (HIV-1): 65200 | MCC at 120 h [1]: 31.3 µg/mL | % Activity of PKC (protein kinase C (PKC); 10 ng/mL): 96% and ~100% | % Activity of PKC (protein kinase C (PKC); 2.7 μg/mL): 98% and ~100% | PKC activation, positive control (protein kinase C (PKC)): 100% | PKC activation, positive control (protein kinase C (PKC); represents 100%): 8400 nmol/mg/min

CCCCCCCCCC(=O)O[C@@]12[C@H](OC(C)=O)[C@@H](C)[C@@]3(O)[C@@H](C=C(CO)C[C@]4(O)C(=O)C(C)=C[C@@H]34)[C@@H]1C2(C)C [Compound 6, 12-O-Acetylphorbol-13-decanoate]
IC100 (HIV-1; [2]): 0.0076 µg/mL | IC100 (HIV-1; [3]): 0.0076 µg/mL | r = CC0/IC100 (HIV-1): 8220 | MCC at 120 h [1]: 62.5 µg/mL | % Activity of PKC (protein kinase C (PKC); 10 ng/mL): 0% | PKC activation (in words) (protein kinase C (PKC); 100 ng/mL): No activation of PKC was observed | % Activity of PKC (protein kinase C (PKC); 2.7 μg/mL): 17% | PKC activation (in words) (protein kinase C (PKC); 10 to 100 ng/mL): no activation; also recorded: did not activate PKC

C/C=C(\C)C(=O)O[C@@]12[C@H](OC(C)=O)[C@@H](C)[C@@]3(O)[C@@H](C=C(CO)C[C@]4(O)C(=O)C(C)=C[C@@H]34)[C@@H]1C2(C)C [Compound 3, 12-O-Acetylphorbol-13-tigliate]
IC100 (HIV-1; [2]): 125 µg/mL | CPE inhibitory effect (in words) (HIV-1): weak inhibitory effects against CPE | r = CC0/IC100 (HIV-1): 4.00 | MCC at 120 h [1]: 500 µg/mL | % Activity of PKC (protein kinase C (PKC); 10 ng/mL): 16% | % Activity of PKC (protein kinase C (PKC); 2.7 μg/mL): 30% | activation of PKC (in words) (protein kinase C (PKC)): weak activation of PKC

CC(=O)OCC1=C[C@H]2[C@@H]3C(C)(C)[C@]3(OC(C)=O)[C@H](OC(C)=O)[C@@H](C)[C@]2(O)[C@@H]2C=C(C)C(=O)[C@@]2(O)C1 [Compound 11, Phorbol-12,13,20-triacetate]
IC100 (HIV-1; [2]): 62.5 µg/mL | r = CC0/IC100 (HIV-1): 2.00 | MCC at 120 h [1]: 125 µg/mL | PKC activation (in words) (protein kinase C (PKC); [4]): did not activate PKC | % Activity of PKC (protein kinase C (PKC); 10 ng/mL): 0% | % Activity of PKC (protein kinase C (PKC); 2.7 μg/mL): 15%

CC1=C[C@H]2[C@@]3(O)[C@H](C)[C@@H](O)[C@]4(O)[C@H]([C@@H]3C=C(CO)C[C@]2(O)C1=O)C4(C)C [Compound 9, Phorbol]
CPE inhibitory effect (in words) (HIV-1): did not show CPE inhibitory effect; also recorded: showed no effect | anti-HIV-1 activity (HIV-1; at concentrations up to 500 μg/mL): did not show anti-HIV-1 activity | MCC at 120 h [1]: 1000 µg/mL | % Activity of PKC (protein kinase C (PKC); 10 ng/mL): 8% | % Activity of PKC (protein kinase C (PKC); 2.7 μg/mL): 39% | activation of PKC (in words) (protein kinase C (PKC)): weak activators of PKC

C/C=C(\C)C(=O)O[C@@]12[C@H](O)[C@@H](C)[C@@]3(O)[C@@H](C=C(COC(=O)CCCCCCC/C=C\C/C=C\CCCCC)C[C@]4(O)C(=O)C(C)=C[C@@H]34)[C@@H]1C2(C)C [Compound 2, 13-O-Tigloylphorobol-20-(9Z,12Z-octadecadienoate)]
IC100 (HIV-1; [2]): 7.81 µg/mL | Anti-HIV-1 IC100 (complete prevention of HIV-1-induced CPE) (HIV-1; 5 days, NE: Not effective): 7.8 µg/mL | r = CC0/IC100 (HIV-1): 8.00 | MCC at 120 h [1]: 62.5 µg/mL | % Activity of PKC (protein kinase C (PKC); 10 ng/mL): 14% | % Activity of PKC (protein kinase C (PKC); 2.7 μg/mL): 32%

CC(=O)OCC1=C[C@H]2[C@@H]3C(C)(C)[C@]3(OC(C)=O)[C@H](OC(C)=O)[C@@H](C)[C@]2(O)[C@@H]2C=C(C)C(=O)[C@]2(OC(C)=O)C1 [Compound 23, 4α-Phorbol-4,12,13,20-tetraacetate]
CPE inhibitory effect (in words) (HIV-1): showed no effect | PKC activation (in words) (protein kinase C (PKC); [4]): did not activate PKC | % Activity of PKC (protein kinase C (PKC); 10 ng/mL): 0% | PKC activation (in words) (protein kinase C (PKC); high concentrations): enhanced activation of PKC

— patent US6268395A, “Phorbol derivatives having antivirus activity” (Lead Chemical Co., Ltd., priority 1999, dated 2001)
